The values that follow come from US8211445B2, “PSM peptides as vaccine targets against methicillin-resistant Staphylococcus” (The United States of America, as represented by the …, priority 2007, dated 2012).

Holding throughout (format): cell-based
Experiment [1] deals with human neutrophils. The experiment in a line: Lysis of human neutrophils (release of lactate dehydrogenase). As to conditions: synthetic PSM peptides at 10 μg/ml, LDH release (FIG. 4A). How it is done: (§1) Lysis of PMNs by synthetic PSMs or clarified S. aureus culture media was determined essentially as described (Voyich et al., J Infect Dis 194, 1761-70, 2006; Voyich et al., J Immunol 175, 3907-19, 2005). Synthetic PSMs (1 or 10 μg/ml) were added to wells of a 96-well tissue culture plate containing 10^6 PMNs and plates were incubated at 37° C. for up to 3 hours. At the desired times, PMN lysis was determined by release of lactate dehydrogenase (LDH; Cytotoxicity Detection Kit, Roche Applied Sciences). Alternatively, wild-type and isogenic mutant S. aureus strains were cultured for 18 hours at 37° C. in 50 ml TSB with shaking using a 100 ml flask. Bacteria were removed by centrifugation and culture media were sterilized by filtration and stored at −80° C. in aliquots until used. Culture medium was diluted 1:10 in RPMI/H, mixed with human PMNs (10^6) and tested for its ability to cause PMN lysis.
as §1, with “above in Example 2.” for “(Voyich et al., J Infect Dis 194, 1761-70, 2006; Voyich et al., J Immunol 175, 3907-19, 2005).”
Human neutrophil assays: Human neutrophil isolation, chemotaxis, calcium ion flux, priming, lysis assays, and measurement of IL-8 production were performed as described in Example 2.

In experiment [2] the test system is human neutrophils. The experiment in a line: Calcium ion flux in neutrophils (Fluo-3-AM). As to conditions: PSM-mec vs PSMα3; range similar to other α-type PSMs, in general higher than β-type PSMs (FIG. 21B). How it is done:
Neutrophils were subjected to a brief hypotonic shock with pyrogen-free water (Sigma), washed, and suspended at 5×10^6 cells/ml in HBSS containing 0.05% human serum albumin (HSA; CLB). Chemotaxis of neutrophils was determined by using fluorescently-labeled neutrophils that migrated through a membrane fitted into an insert of a 24-well microtiter plate transwell system (Costar) containing a prewetted 3-μm-pore-size polycarbonate filter as described (de Haas et al., J Exp Med 199, 687-95, 2004). For measurement of calcium ion fluxes, 5×10^6 neutrophils/ml were loaded with 2 μM Fluo-3-AM (Molecular Probes) in RPMI containing 0.05% HSA (RPMI-HSA) for 20 minutes at room temperature under agitation, washed twice with buffer, and resuspended in RPMI-HSA at 10^6 cells/ml. Calcium fluxes were analyzed with a FACScalibur (Becton Dickinson).
Neutrophils were subjected to a brief hypotonic shock with pyrogen-free water (Sigma), washed, and suspended at 5×10^6 cells/ml in HBSS containing 0.05% human serum albumin (HAS; CLB). Chemotaxis of neutrophils was determined by using fluorescently-labeled neutrophils that migrated through a membrane fitted into an insert of a 24-well microtiter plate transwell system (Costar) containing a prewetted 3-μm-pore-size polycarbonate filter. […] Calcium fluxes were analyzed with a FACScalibur (Becton Dickinson). […]

The subject of experiment [3] is human neutrophils. As to the kind of experiment: Interaction of synthetic PSMs with human neutrophils (overall pro-inflammatory activity). To be noted: synthetic PSM peptides, comparison among PSMs. As for the experimental part:
Neutrophils were subjected to a brief hypotonic shock with pyrogen-free water (Sigma), washed, and suspended at 5×10^6 cells/ml in HBSS containing 0.05% human serum albumin (HSA; CLB). Chemotaxis of neutrophils was determined by using fluorescently-labeled neutrophils that migrated through a membrane fitted into an insert of a 24-well microtiter plate transwell system (Costar) containing a prewetted 3-μm-pore-size polycarbonate filter as described (de Haas et al., J Exp Med 199, 687-95, 2004). […] Calcium fluxes were analyzed with a FACScalibur (Becton Dickinson).
Priming of PMNs by synthetic PSMs was determined by increased surface expression of CD11b and gp91phox (granule exocytosis). […] PMNs were analyzed on a FACSCalibur flow cytometer (Becton Dickinson) and dead cells were excluded with a single gate. Percent positive neutrophils were determined with a marker defined by the boundary of the isotype-matched control antibody.
After isolation and washing, PMN or PBMC were resuspended in RPMI 1640 medium (Sigma) supplemented with 10% human serum, 2 mM L-glutamine, 100 U/ml penicillin, 100 μg/ml streptomycin, 2 mM sodium pyruvate, and 10 mM HEPES. […] After removal of supernatant, cells were resuspended in fresh culture medium, counted, and distributed into a 96-well cell culture plate at 100 μl and 2.5×10^5 cells per well. […]

fMEFVAKLFKFFKDLLGKFLGNN [PSMα3]: in experiment [1], the “lysis of human neutrophils in vitro” value is listed as “significant lysis”. In addition, in experiment [2], the calcium flux entry is “most potent”. For the same substance, the pro-inflammatory activity entry in experiment [3] was “most pronounced pro-inflammatory activity”.
